Source: ChEMBL document CHEMBL4823257, “Penitol A and Penicitols E-I: Citrinin Derivatives from Penicillium citrinum and the Structure Revision of Previously Proposed Analogues” (J Nat Prod, 2021)
Converted amounts (≈) assume the structure as drawn.

tested on: Staphylococcus aureus; experiment: Antibacterial activity against Staphylococcus aureus ATCC 29213; type: functional

SMILES	MIC [µg/mL]
Cc1c(O)cc2c3c1[C@H](C)[C@@H](C)O[C@@H]3[C@H]1CCCC[C@]1(O)O2	> 64
C/C=C/[C@@H]1C=C[C@@H]2C[C@H](C)CC[C@H]2[C@]1(C)/C(O)=C1/C(=O)[C@H](CO)N(C)C1=O	2 (≈ 5.35 µM)
CO[C@]12CCCC[C@@H]1[C@H]1O[C@H](C)[C@@H](C)c3c(C)c(O)cc(c31)O2	> 64
Cc1c(O)cc2c3c1[C@H](C)[C@@H](C)O[C@H]3[C@H]1CCCC[C@@]1(O)O2	> 64
CO[C@@]12CCCC[C@H]1[C@@H]1O[C@H](C)[C@@H](C)c3c(C)c(O)cc(c31)O2	64 (≈ 201 µM)

tested on: HL-60; experiment: Cytotoxicity against human HL-60 cells by MTT assay; type: functional, cell-based

SMILES	IC50 [µM]
Cc1c(O)cc2c3c1[C@H](C)[C@@H](C)O[C@@H]3[C@H]1CCCC[C@]1(O)O2	> 30
CO[C@]12CCCC[C@@H]1[C@H]1O[C@H](C)[C@@H](C)c3c(C)c(O)cc(c31)O2	> 30
CO[C@@]12CCCC[C@H]1[C@@H]1O[C@H](C)[C@@H](C)c3c(C)c(O)cc(c31)O2	> 30

tested on: Bacillus subtilis; experiment: Antibacterial activity against Bacillus subtilis ATCC 6051; type: functional

SMILES	MIC [µg/mL]
Cc1c(O)cc2c3c1[C@H](C)[C@@H](C)O[C@@H]3[C@H]1CCCC[C@]1(O)O2	> 64
C/C=C/[C@@H]1C=C[C@@H]2C[C@H](C)CC[C@H]2[C@]1(C)/C(O)=C1/C(=O)[C@H](CO)N(C)C1=O	1 (≈ 2.68 µM)
CO[C@]12CCCC[C@@H]1[C@H]1O[C@H](C)[C@@H](C)c3c(C)c(O)cc(c31)O2	> 64
Cc1c(O)cc2c3c1[C@H](C)[C@@H](C)O[C@H]3[C@H]1CCCC[C@@]1(O)O2	> 64
CO[C@@]12CCCC[C@H]1[C@@H]1O[C@H](C)[C@@H](C)c3c(C)c(O)cc(c31)O2	32 (≈ 100 µM)

tested on: MCF7; experiment: Cytotoxicity against human MCF7 cells by SRB assay; type: functional, cell-based

SMILES	IC50 [µM]
Cc1c(O)cc2c3c1[C@H](C)[C@@H](C)O[C@@H]3[C@H]1CCCC[C@]1(O)O2	> 30
CO[C@]12CCCC[C@@H]1[C@H]1O[C@H](C)[C@@H](C)c3c(C)c(O)cc(c31)O2	> 30
CO[C@@]12CCCC[C@H]1[C@@H]1O[C@H](C)[C@@H](C)c3c(C)c(O)cc(c31)O2	> 30

tested on: Enterococcus faecalis; experiment: Antibacterial activity against Vancomycin resistant Enterococcus faecalis 1010798; type: functional

SMILES	MIC [µg/mL]
Cc1c(O)cc2c3c1[C@H](C)[C@@H](C)O[C@@H]3[C@H]1CCCC[C@]1(O)O2	> 64
C/C=C/[C@@H]1C=C[C@@H]2C[C@H](C)CC[C@H]2[C@]1(C)/C(O)=C1/C(=O)[C@H](CO)N(C)C1=O	2 (≈ 5.35 µM)
CO[C@]12CCCC[C@@H]1[C@H]1O[C@H](C)[C@@H](C)c3c(C)c(O)cc(c31)O2	> 64
Cc1c(O)cc2c3c1[C@H](C)[C@@H](C)O[C@H]3[C@H]1CCCC[C@@]1(O)O2	> 64
CO[C@@]12CCCC[C@H]1[C@@H]1O[C@H](C)[C@@H](C)c3c(C)c(O)cc(c31)O2	32 (≈ 100 µM)

tested on: Klebsiella pneumoniae; experiment: Antibacterial activity against Klebsiella pneumoniae WNX-1; type: functional

SMILES	MIC [µg/mL]
Cc1c(O)cc2c3c1[C@H](C)[C@@H](C)O[C@@H]3[C@H]1CCCC[C@]1(O)O2	> 64
CO[C@]12CCCC[C@@H]1[C@H]1O[C@H](C)[C@@H](C)c3c(C)c(O)cc(c31)O2	> 64
Cc1c(O)cc2c3c1[C@H](C)[C@@H](C)O[C@H]3[C@H]1CCCC[C@@]1(O)O2	> 64
CO[C@@]12CCCC[C@H]1[C@@H]1O[C@H](C)[C@@H](C)c3c(C)c(O)cc(c31)O2	> 64

tested on: L02; experiment: Cytotoxicity against human L02 cells by SRB assay; type: functional, cell-based

SMILES	IC50 [µM]
Cc1c(O)cc2c3c1[C@H](C)[C@@H](C)O[C@@H]3[C@H]1CCCC[C@]1(O)O2	> 30
CO[C@]12CCCC[C@@H]1[C@H]1O[C@H](C)[C@@H](C)c3c(C)c(O)cc(c31)O2	> 30
Cc1c(O)cc2c3c1[C@H](C)[C@@H](C)O[C@H]3[C@H]1CCCC[C@@]1(O)O2	> 30
CO[C@@]12CCCC[C@H]1[C@@H]1O[C@H](C)[C@@H](C)c3c(C)c(O)cc(c31)O2	> 30

tested on: Pseudomonas aeruginosa; experiment: Antibacterial activity against Pseudomonas aeruginosa 14; type: functional

SMILES	MIC [µg/mL]
Cc1c(O)cc2c3c1[C@H](C)[C@@H](C)O[C@@H]3[C@H]1CCCC[C@]1(O)O2	> 64
CO[C@]12CCCC[C@@H]1[C@H]1O[C@H](C)[C@@H](C)c3c(C)c(O)cc(c31)O2	> 64
Cc1c(O)cc2c3c1[C@H](C)[C@@H](C)O[C@H]3[C@H]1CCCC[C@@]1(O)O2	> 64
CO[C@@]12CCCC[C@H]1[C@@H]1O[C@H](C)[C@@H](C)c3c(C)c(O)cc(c31)O2	> 64

tested on: A549; experiment: Cytotoxicity against human A549 cells by SRB assay; type: functional, cell-based

SMILES	IC50 [µM]
Cc1c(O)cc2c3c1[C@H](C)[C@@H](C)O[C@@H]3[C@H]1CCCC[C@]1(O)O2	> 30
CO[C@]12CCCC[C@@H]1[C@H]1O[C@H](C)[C@@H](C)c3c(C)c(O)cc(c31)O2	19
CO[C@@]12CCCC[C@H]1[C@@H]1O[C@H](C)[C@@H](C)c3c(C)c(O)cc(c31)O2	> 30

tested on: K562; experiment: Cytotoxicity against human K562 cells by MTT assay; type: functional, cell-based

SMILES	IC50 [µM]
Cc1c(O)cc2c3c1[C@H](C)[C@@H](C)O[C@@H]3[C@H]1CCCC[C@]1(O)O2	> 30
CO[C@]12CCCC[C@@H]1[C@H]1O[C@H](C)[C@@H](C)c3c(C)c(O)cc(c31)O2	> 30
Cc1c(O)cc2c3c1[C@H](C)[C@@H](C)O[C@H]3[C@H]1CCCC[C@@]1(O)O2	> 30
CO[C@@]12CCCC[C@H]1[C@@H]1O[C@H](C)[C@@H](C)c3c(C)c(O)cc(c31)O2	26

tested on: HCT-116; experiment: Cytotoxicity against human HCT-116 cells by SRB assay; type: functional, cell-based

SMILES	IC50 [µM]
Cc1c(O)cc2c3c1[C@H](C)[C@@H](C)O[C@@H]3[C@H]1CCCC[C@]1(O)O2	> 30
CO[C@]12CCCC[C@@H]1[C@H]1O[C@H](C)[C@@H](C)c3c(C)c(O)cc(c31)O2	> 30
CO[C@@]12CCCC[C@H]1[C@@H]1O[C@H](C)[C@@H](C)c3c(C)c(O)cc(c31)O2	> 30

tested on: Escherichia coli; experiment: Antibacterial activity against Escherichia coli ATCC 25922; type: functional

SMILES	MIC [µg/mL]
Cc1c(O)cc2c3c1[C@H](C)[C@@H](C)O[C@@H]3[C@H]1CCCC[C@]1(O)O2	> 64
CO[C@]12CCCC[C@@H]1[C@H]1O[C@H](C)[C@@H](C)c3c(C)c(O)cc(c31)O2	> 64
Cc1c(O)cc2c3c1[C@H](C)[C@@H](C)O[C@H]3[C@H]1CCCC[C@@]1(O)O2	> 64
CO[C@@]12CCCC[C@H]1[C@@H]1O[C@H](C)[C@@H](C)c3c(C)c(O)cc(c31)O2	> 64

tested on: MDA-MB-231; experiment: Cytotoxicity against human MDA-MB-231 cells by SRB assay; type: functional, cell-based

SMILES	IC50 [µM]
Cc1c(O)cc2c3c1[C@H](C)[C@@H](C)O[C@@H]3[C@H]1CCCC[C@]1(O)O2	> 30
CO[C@]12CCCC[C@@H]1[C@H]1O[C@H](C)[C@@H](C)c3c(C)c(O)cc(c31)O2	> 30
Cc1c(O)cc2c3c1[C@H](C)[C@@H](C)O[C@H]3[C@H]1CCCC[C@@]1(O)O2	> 30
CO[C@@]12CCCC[C@H]1[C@@H]1O[C@H](C)[C@@H](C)c3c(C)c(O)cc(c31)O2	> 30

tested on: Bel-7402; experiment: Cytotoxicity against human Bel-7402 cells by SRB assay; type: functional, cell-based

SMILES	IC50 [µM]
Cc1c(O)cc2c3c1[C@H](C)[C@@H](C)O[C@@H]3[C@H]1CCCC[C@]1(O)O2	> 30
CO[C@]12CCCC[C@@H]1[C@H]1O[C@H](C)[C@@H](C)c3c(C)c(O)cc(c31)O2	17
CO[C@@]12CCCC[C@H]1[C@@H]1O[C@H](C)[C@@H](C)c3c(C)c(O)cc(c31)O2	> 30
